Patent US20160033531A1, “METHOD AND COMPOSITIONS FOR DETECTING BINDING TO THE PREGNANE X RECEPTOR” (ST. JUDE CHILDREN'S RESEARCH HOSPITAL, priority 2013, published 2016)
Marks after values point to notes of the source that are not given here. Blank lines part the entries; values can stand above or below the compound they belong to.

Key:
hPXR [1] = target: T1, hPXR (Homo sapiens, UniProt O75469); conditions: cited from earlier work; for Activity (Fluormone PXR (SXR) Green as Probe), % at single concentration: 1000 μM, published report (Lau et al.)
T1 construct: literature Invitrogen
T1 sequence (O75469 1-434): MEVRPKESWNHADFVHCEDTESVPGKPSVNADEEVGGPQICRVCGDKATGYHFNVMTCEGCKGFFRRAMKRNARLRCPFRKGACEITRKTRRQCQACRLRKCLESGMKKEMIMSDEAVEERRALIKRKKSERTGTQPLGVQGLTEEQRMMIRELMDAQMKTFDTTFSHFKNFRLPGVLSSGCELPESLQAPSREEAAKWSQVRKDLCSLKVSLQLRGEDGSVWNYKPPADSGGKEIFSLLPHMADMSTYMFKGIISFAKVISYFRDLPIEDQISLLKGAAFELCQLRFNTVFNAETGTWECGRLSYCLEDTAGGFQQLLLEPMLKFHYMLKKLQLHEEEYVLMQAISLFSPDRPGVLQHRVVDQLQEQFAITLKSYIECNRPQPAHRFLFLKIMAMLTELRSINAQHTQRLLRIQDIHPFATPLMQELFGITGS

GST-PXRLBD = target: T2, GST-PXRLBD (Homo sapiens, UniProt O75469); test: Interaction of BODIPY Fl-vindoline with GST-PXRLBD, Kd from specific binding curve; conditions: buffer 50 mM Tris, 50 mM KCl, 1 mM CHAPS, 0.1 mg/mL BSA, 0.05 mM DTT, pH 7.5
T2 construct: GST (N)
T2 sequence (O75469 146-433 limits assumed): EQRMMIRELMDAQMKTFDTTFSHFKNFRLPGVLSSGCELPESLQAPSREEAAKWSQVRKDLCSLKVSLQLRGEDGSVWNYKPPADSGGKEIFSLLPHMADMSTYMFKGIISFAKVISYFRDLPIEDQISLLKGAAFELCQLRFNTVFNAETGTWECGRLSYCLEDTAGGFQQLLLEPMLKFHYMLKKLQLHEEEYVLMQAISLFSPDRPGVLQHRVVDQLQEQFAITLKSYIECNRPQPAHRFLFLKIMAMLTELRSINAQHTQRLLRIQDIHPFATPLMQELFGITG
Protocol: Assay was performed using a buffer solution containing 50 mM Tris, 50 mM KCl, 1 mM CHAPS, 0.1 mg/mL BSA, and 0.05 mM DTT (pH=7.5).

[2] = Solubility of test compound in the TR-FRET assay; conditions: 100 μM
hPXR [3] = target: T1, hPXR; test: Invitrogen hPXR TR-FRET binding kit, Fluormone PXR (SXR) Green as probe (published reports); conditions: calculated from published data by equation 2

SMILES: CC1C(=O)OC2C(O)C34C5CC(C(C)(C)C)C36C(OC(=O)C6O)OC4(C(=O)O5)C12O (stereo not drawn) [Ginkgolide B, ginkgolide B]
Activity (Fluormone PXR (SXR) Green as Probe), % at single concentration (hPXR [1]): 48% (1000 μM)^g

Kd (GST-PXRLBD): 256 nM
SMILES: CC[C@]12C=CCN3CC[C@@]4(c5ccc(OC)cc5N(C)[C@H]4[C@@](O)(C(=O)OC)[C@@H]1OC(=O)CCC1=[N+]4C(C=C1)Cc1c(C)cc(C)n1[B-]4(F)F)[C@@H]32 (stereo partly drawn) [BODIPY Fl-vindoline, BODIPY FL vindoline]

SMILES: C[C@@H]1C(=O)O[C@H]2C[C@@]34[C@H]5C[C@@H](C(C)(C)C)[C@]36[C@@H](OC(=O)[C@@H]6O)O[C@@]4(C(=O)O5)[C@]21O [Ginkgolide A, ginkgolide A]
Activity (Fluormone PXR (SXR) Green as Probe), % at single concentration (hPXR [1]): 54% (1000 μM)^g

Solubility in the assay [2]: incomplete solubility | Ki (hPXR [3]): 1000 nM
SMILES: Clc1ccccc1C(c1ccccc1)(c1ccccc1)n1ccnc1 [Clotrimazole, clotrimazole]
IC50 (hPXR [1]; values from published reports, read-out: IC50 (Fluormone PXR (SXR) Green as Probe)): 2000 nM
